The text below walks through data of ChEMBL document CHEMBL6074656, “Biological evaluation of signal transducer and activator of transcription 3 (STAT3) targeting by phaeosphaeride A and its analogs” (Bioorg Med Chem Lett, 2024).

Molecules are shown by their SMILES. Where only a bound is given, the exact number is not on record here.

The subject of one test is MDA-MB-231. Put plainly: Inhibition of cell growth in human MDA-MB-231 cells by MTT assay. It counts as functional, cell-based.
The target of test [1] is Signal transducer and activator of transcription 3 (Homo sapiens, UniProt P40763). Put plainly: Inhibition of IL-6-induced STAT3 phosphorylation at Tyr705 in human HeLa cells by Western blot analysis. It counts as cell-based. (In general: In western blotting, separated proteins are transferred to a membrane and probed.)
Signal transducer and activator of transcription 3, sequence (P40763 whole entry): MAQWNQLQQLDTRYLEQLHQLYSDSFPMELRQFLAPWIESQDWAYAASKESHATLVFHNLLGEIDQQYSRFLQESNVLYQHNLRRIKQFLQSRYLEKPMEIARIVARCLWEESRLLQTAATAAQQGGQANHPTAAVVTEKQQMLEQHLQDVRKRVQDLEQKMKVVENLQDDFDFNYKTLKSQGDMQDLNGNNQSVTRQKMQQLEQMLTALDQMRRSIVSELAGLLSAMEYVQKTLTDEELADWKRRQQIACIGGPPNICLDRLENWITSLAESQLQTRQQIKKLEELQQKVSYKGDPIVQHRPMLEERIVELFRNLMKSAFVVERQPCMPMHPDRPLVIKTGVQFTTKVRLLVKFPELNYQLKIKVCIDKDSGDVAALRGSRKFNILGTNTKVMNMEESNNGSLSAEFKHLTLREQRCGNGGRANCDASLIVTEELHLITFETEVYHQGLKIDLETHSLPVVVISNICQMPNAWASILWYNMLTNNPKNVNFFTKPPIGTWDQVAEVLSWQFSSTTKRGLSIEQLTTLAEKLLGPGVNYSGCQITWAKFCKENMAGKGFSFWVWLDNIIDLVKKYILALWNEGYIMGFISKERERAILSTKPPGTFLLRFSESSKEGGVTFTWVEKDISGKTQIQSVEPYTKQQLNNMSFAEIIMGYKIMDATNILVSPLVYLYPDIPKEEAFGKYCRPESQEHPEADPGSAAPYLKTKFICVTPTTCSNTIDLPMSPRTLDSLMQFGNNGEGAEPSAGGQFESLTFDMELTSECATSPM
The next test deals with HeLa. In words: Inhibition of cell growth in human HeLa cells by MTT assay. It counts as functional, cell-based. For orientation: Tetrazolium dyes change colour on reduction, which living cells bring about.
A further test deals with U-266. In words: Antiproliferative activity against human U-266 cells. It counts as functional, cell-based.

Usually IC50 stands for the concentration at which inhibition is half-maximal. Low readings indicate greater potency, high ones weaker potency. For the compound `C=C1C2=C(C(=O)N1OC)[C@@H](O)[C@](C)(O)[C@@H](CCCCC)O2`, the IC50 with MDA-MB-231 turned out to be 8.9 µM; in test [1] it was 6.6 µM; in the test on HeLa it was 4.2 µM.
Regarding `CCCCC[C@@H]1OC2=C(C(=O)N(OC)C2=O)[C@H](O)[C@@]1(C)O`, the figures for the IC50 (with MDA-MB-231; in test [1]; in the test with HeLa) were > 50 µM, > 100 µM and > 50 µM, respectively.
Regarding `C=C1C2=C(C(=O)N1OC)[C@H](O)[C@@](C)(O)[C@@H](CCCCC)O2`, the IC50 with MDA-MB-231 was determined as 19.8 µM; in test [1], 7.3 µM; with HeLa, 6.1 µM.
The matching figures for `O=[N+]([O-])c1ccc2c(c1)S(=O)(=O)C=C2`: 3.4 µM, < 6.3 µM and 0.57 µM.
Turning to `C=C1C2=C(C(=O)N1OC)[C@@H](O)[C@@](C)(O)[C@@H](CCCCC)O2`, the figures for the IC50 (in the test on MDA-MB-231; in test [1]; in the test with HeLa) were 16.2 µM, 9.2 µM and 4.2 µM, respectively.
Turning to `C=C1C2=C(C(=O)N1OC)[C@H](O)[C@@](C)(O)[C@H](CCCCC)O2`, the IC50 in the test with MDA-MB-231 worked out at 29.7 µM; in test [1] it was 13.5 µM; in the test with U-266, 6.7 µM; with HeLa, 8.8 µM. The inhibition result in test [1] (dose <= 100.0 µM) is “Dose-dependent-effect”.
`C=C1C2=C(C(=O)N1OC)[C@@H](O)[C@@](C)(O)[C@H](CCCCC)O2`: the IC50 came to 24.2 µM with MDA-MB-231, 20.2 µM in test [1] and 8.4 µM with HeLa.
